Measurements from ChEMBL document CHEMBL1150515, “Synthesis and structure-activity relationships of novel THF 1-methylcarbapenems II” (1997).

Experiments:
[1] = Antimicrobial activity against Citrobacter freundii (GC 2211); type: functional
[2] = test system: Escherichia coli; assay: Antimicrobial activity against Escherichia coli (GC 2205); type: functional
[3] = Antimicrobial activity against Xanthomonas maltophilia (GC 562); type: functional; conditions: Stenotrophomonas maltophilia
[4] = test system: Staphylococcus aureus; assay: The compound was evaluated for the antimicrobial activity against methicillin - resistant Staphylococcus aureus (GC 2220); type: functional
[5] = test system: Escherichia coli; assay: Antimicrobial activity against Escherichia coli (GC 1792); type: functional
[6] = test system: Pseudomonas aeruginosa; assay: Antimicrobial activity against Pseudomonas aeruginosa (ATCC 27853); type: functional
[7] = target: T1, Dipeptidase 1 (Sus scrofa) (UniProt P22412); assay: Relative hydrolysis to that of imipenem was determined by hog renal dehydropeptidase
T1 sequence (whole entry): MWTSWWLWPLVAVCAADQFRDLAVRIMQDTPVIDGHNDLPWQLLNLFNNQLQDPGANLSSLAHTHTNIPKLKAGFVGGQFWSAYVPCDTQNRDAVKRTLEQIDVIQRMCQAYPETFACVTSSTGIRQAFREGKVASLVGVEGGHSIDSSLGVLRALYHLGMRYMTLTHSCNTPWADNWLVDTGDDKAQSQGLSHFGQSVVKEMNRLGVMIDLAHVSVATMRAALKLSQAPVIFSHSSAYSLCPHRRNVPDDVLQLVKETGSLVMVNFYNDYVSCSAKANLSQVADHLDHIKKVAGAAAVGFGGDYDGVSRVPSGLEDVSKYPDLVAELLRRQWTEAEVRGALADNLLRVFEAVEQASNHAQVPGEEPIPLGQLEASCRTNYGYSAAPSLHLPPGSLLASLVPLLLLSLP

[8] = Antimicrobial activity against Enterobacter cloacae (GC 2209); type: functional
[9] = test system: Pseudomonas aeruginosa; assay: Antimicrobial activity against Pseudomonas aeruginosa (GC 1544 OprD); type: functional
[10] = Antimicrobial activity against Morganella morganii (GC 2213); type: functional
[11] = test system: Escherichia coli; assay: Antimicrobial activity against Escherichia coli (ATCC 25922); type: functional
[12] = test system: Acinetobacter calcoaceticus; assay: Antimicrobial activity against Acinetobacter calcoaceticus (GC 756); type: functional
[13] = test system: Enterococcus faecalis; assay: The compound was evaluated for the antimicrobial activity against Enterococcus faecalis (GC 842); type: functional
[14] = test system: Enterococcus faecium; assay: The compound was evaluated for the antimicrobial activity against Enterococcus faecium (GC 1182); type: functional
[15] = test system: Staphylococcus aureus; assay: Antimicrobial activity against Staphylococcus aureus (ATCC 29213); type: functional

Compound: CCN1CCN(C(=O)NC[C@H]2OCC[C@H]2SC2=C(C(=O)[O-])N3C(=O)[C@H]([C@@H](C)O)[C@H]3[C@H]2C)C(=O)C1=O.[Na+]
- MIC [1]: 0.12 mg/L
- MIC [2]: ≤ 0.06 mg/L
- MIC [3]: > 128 mg/L
- MIC [4]: 8 mg/L
- MIC [5]: ≤ 0.06 mg/L
- MIC [6]: 16 mg/L
- Relative hydrolysis [7]: 9
- MIC [8]: ≤ 0.06 mg/L
- MIC [9]: 32 mg/L
- MIC [10]: 0.5 mg/L
- MIC [11]: ≤ 0.06 mg/L
- MIC [12]: 2 mg/L
- MIC [13]: 4 mg/L
- MIC [14]: > 128 mg/L
- MIC [15]: ≤ 0.06 mg/L
